Values after ≈ are worked out from the molar mass of the structure shown. Read-outs that look alike come from different tables or passages of the source.

One data set concerns the target TYK2 (Homo sapiens (Human), UniProt P29597). Put plainly: KINOMEscan enzyme binding assay (DiscoveRx), TYK2. Particulars: read-out: Dissociation Constant TYK2. As for the experimental part:
(§1) These assays may be conducted by DiscoveRx (formerly Ambit; San Diego, Calif.). The percentage inhibition produced by incubation with a test compound may be calculated relative to the non-inhibited control.

The target in the next data set is JAK1 (Homo sapiens (Human), UniProt P23458). The experiment in a line: KINOMEscan enzyme binding assay (DiscoveRx), JAK1. Particulars: read-out: Dissociation Constant JAK1. As for the experimental part: as §1
The target of the next data set is JAK2 (Homo sapiens (Human), UniProt O60674). Put plainly: KINOMEscan enzyme binding assay (DiscoveRx), JAK2. Particulars: read-out: Dissociation Constant JAK2. As to the method: as §1
Data set [1] has as its system CD3/IL2 stimulated PBMC cells. The experiment in a line: IFNγ release from CD3/IL2 stimulated PBMC cells. The format is cell-based. The conditions noted are these: Homo sapiens, CD3/IL2 stimulation, 48 h, ELISA. As to the method:
PBMCs from healthy subjects are separated from whole blood using a density gradient (Lymphoprep, Axis-Shield Healthcare). Cells are added to a 96 well plate, and compound at the desired concentration added 2 hours prior to stimulation with a mixture of monoclonal antibody to CD3 (1 μg/ml, eBioscience) and human recombinant IL2 (10 ng/ml, Peprotech). After 48 hours incubation under normal tissue culture conditions, supernatants are collected and IFNγ release determined by Sandwich ELISA (Duo-set, R&D System). The IC50 is determined from the dose response curve.
(In general: In an ELISA, binding on a coated surface is turned into a signal by an enzyme label.)

Data set [2] is described as follows: Solubility in fasted-state simulated colonic fluid (FaSSCoF). The conditions noted are these: 25 °C, pH 6.5, fassgf or other biorelevant, thermodynamic from solid, pH 6.5, 25° C. The format is physicochemical. As for the experimental part: The solubilities of compounds of the invention in FaSSCoF at pH 6.5 are determined using a modification of a previously-reported procedure (Vertzoni, M., et al. Pharm. Res. 2010, 27, 2187-2196). In place of the bile salt extract employed in the original procedure (which extract is no longer available), the modified procedure uses a mixture of sodium taurochlorate (0.15 g), glycocholic acid (0.15 g), ursodeoxycholic acid (0.05 g), cholic acid (0.05 g), and glycodeoxycholic acid (0.05 g). These five bile acids are ground together with a mortar and pestle to produce a fine white powder that is incorporated into the FaSSCoF, as outlined below.
FaSSCoF medium: Tris(hydroxymethyl)aminomethane (Tris; 0.275 g) and maleic acid (0.44 g) are dissolved in water (35 mL) to give a solution whose pH is adjusted to 6.5 by treatment with 0.5M NaOH (ca. 12 mL). The solution is then made up to 50 mL with water. A portion of this Tris/maleate buffer solution (ca. 25 mL) is added to a 0.5 L round-bottomed flask, before being treated with 0.00565 g of the bile acid mixture described above. Solutions of phosphatidylcholine (0.0111 g) in DCM (0.15 mL) and palmitic acid (0.0013 g) in DCM (0.15 mL) are added, then the organic solvent is evaporated off under reduced pressure at 40° C. until a clear solution, with no perceptible DCM odour, is achieved. The volume of the evaporated solution is adjusted to 50 mL by addition of the remainder of Tris/maleate buffer, then BSA (0.115 g) is added, before being dissolved by gentle agitation.
Solubility Determination: Test compounds are suspended in the pH 6.5 FaSSCoF medium to give a maximum final concentration of 2-10 mg/mL. The suspensions are equilibrated at 25° C. for 24 h, before being filtered through a glass fibre C filter. The filtrates are then diluted as appropriate for injection and quantification by HPLC with reference to a standard. Different volumes of the standard, diluted and undiluted sample solutions are injected and the solubilities are calculated using the peak areas determined by integration of the peak found at the same retention time as the principal peak in the standard injection.

The next data set deals with Jurkat cells. Put plainly: Cell cytotoxicity assay (propidium iodide, flow cytometry). The format is cell-based, human. Particulars: 24 h. As to the method:
1×10^5 Jurkat cells (immortalised human T lymphocytes) are added to the appropriate number of wells of a 96 well plate in 100 μL of media (RPMI supplemented with 10% foetal bovine serum). 1 μL of DMSO control (final concentration 1.0% v/v) or test compound (final concentration 20, 5 or 1 μg/mL) is added to the wells and incubated at 37° C., 5% CO2. After 24 hours, the plate is centrifuged at 1200 rpm for 3 minutes and the supernatant discarded. Cells are then resuspended in 150 μL (final concentration 7.5 μg/mL) of propidium iodide (PI) in PBS and incubated at 37° C., 5% CO2 for 15 minutes. After 15 minutes, cells are analysed by flow cytometry (BD accuri) using the FL3 window. The % viability is calculated as the % of cells that are PI negative in the test wells normalised to the DMSO control.

The next data set deals with JAK3 (Homo sapiens (Human), UniProt P52333). The experiment in a line: KINOMEscan enzyme binding assay (DiscoveRx), JAK3. The conditions noted are these: read-out: Dissociation Constant JAK3. As for the experimental part:
as §1

Sequence of JAK3 (P52333 whole entry): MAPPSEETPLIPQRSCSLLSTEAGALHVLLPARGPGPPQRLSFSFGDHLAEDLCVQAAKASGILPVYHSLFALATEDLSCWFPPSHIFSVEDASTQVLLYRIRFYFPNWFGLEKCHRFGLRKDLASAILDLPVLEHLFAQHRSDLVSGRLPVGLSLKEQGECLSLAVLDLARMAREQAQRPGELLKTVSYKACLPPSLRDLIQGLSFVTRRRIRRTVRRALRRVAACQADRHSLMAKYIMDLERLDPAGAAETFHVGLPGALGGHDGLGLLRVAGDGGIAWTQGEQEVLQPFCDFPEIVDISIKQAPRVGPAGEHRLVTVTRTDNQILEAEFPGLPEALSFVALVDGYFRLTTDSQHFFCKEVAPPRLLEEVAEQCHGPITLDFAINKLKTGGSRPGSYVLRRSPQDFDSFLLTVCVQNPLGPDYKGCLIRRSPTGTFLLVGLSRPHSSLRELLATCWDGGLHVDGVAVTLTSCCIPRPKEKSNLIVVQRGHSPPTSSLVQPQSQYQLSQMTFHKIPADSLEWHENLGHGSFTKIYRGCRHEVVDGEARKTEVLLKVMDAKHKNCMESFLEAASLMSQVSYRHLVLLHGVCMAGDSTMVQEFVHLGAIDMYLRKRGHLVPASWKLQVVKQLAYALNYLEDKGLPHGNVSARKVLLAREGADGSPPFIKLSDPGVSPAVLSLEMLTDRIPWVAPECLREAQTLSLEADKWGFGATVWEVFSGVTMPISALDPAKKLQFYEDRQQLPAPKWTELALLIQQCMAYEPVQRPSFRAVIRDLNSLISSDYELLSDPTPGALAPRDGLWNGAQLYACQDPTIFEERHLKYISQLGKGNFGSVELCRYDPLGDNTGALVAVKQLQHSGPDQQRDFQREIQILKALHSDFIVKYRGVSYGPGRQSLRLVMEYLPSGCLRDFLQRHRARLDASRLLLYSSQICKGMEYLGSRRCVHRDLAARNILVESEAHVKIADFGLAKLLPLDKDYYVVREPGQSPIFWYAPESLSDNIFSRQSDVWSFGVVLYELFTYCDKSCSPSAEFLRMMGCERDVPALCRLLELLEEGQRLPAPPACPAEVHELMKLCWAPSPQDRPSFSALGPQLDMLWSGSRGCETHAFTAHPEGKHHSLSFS
Sequence of TYK2 (P29597 whole entry): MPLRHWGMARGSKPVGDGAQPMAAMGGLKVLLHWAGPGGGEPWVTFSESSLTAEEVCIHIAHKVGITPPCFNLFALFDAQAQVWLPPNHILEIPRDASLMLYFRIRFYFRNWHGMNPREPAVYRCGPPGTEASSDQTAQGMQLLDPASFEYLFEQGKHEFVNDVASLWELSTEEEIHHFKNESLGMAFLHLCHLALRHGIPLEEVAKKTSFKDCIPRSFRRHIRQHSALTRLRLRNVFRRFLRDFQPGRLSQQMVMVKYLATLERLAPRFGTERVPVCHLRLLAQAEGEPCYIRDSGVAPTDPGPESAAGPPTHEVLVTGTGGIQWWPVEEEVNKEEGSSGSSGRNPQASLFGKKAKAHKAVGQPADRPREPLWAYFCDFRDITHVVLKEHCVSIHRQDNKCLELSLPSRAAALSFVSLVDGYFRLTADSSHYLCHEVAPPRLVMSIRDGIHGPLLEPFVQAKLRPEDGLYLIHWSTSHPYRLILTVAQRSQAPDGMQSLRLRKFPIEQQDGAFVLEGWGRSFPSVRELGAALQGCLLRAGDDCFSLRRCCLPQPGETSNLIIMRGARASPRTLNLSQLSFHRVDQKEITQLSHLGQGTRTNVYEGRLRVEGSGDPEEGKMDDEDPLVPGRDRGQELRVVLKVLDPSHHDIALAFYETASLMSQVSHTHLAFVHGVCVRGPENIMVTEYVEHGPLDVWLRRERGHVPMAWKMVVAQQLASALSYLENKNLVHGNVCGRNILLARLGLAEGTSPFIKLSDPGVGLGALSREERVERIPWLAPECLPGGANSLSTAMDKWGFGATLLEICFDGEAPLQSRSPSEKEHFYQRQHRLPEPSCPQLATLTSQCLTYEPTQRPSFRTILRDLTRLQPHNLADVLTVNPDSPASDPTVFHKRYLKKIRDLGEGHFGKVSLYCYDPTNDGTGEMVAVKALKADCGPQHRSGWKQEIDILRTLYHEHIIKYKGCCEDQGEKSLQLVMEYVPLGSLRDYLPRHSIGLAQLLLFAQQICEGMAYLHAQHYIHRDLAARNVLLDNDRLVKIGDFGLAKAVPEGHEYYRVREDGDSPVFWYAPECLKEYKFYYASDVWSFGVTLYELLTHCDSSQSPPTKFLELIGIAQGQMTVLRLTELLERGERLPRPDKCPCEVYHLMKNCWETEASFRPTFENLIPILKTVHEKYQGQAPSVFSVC
Sequence of JAK2 (O60674 whole entry): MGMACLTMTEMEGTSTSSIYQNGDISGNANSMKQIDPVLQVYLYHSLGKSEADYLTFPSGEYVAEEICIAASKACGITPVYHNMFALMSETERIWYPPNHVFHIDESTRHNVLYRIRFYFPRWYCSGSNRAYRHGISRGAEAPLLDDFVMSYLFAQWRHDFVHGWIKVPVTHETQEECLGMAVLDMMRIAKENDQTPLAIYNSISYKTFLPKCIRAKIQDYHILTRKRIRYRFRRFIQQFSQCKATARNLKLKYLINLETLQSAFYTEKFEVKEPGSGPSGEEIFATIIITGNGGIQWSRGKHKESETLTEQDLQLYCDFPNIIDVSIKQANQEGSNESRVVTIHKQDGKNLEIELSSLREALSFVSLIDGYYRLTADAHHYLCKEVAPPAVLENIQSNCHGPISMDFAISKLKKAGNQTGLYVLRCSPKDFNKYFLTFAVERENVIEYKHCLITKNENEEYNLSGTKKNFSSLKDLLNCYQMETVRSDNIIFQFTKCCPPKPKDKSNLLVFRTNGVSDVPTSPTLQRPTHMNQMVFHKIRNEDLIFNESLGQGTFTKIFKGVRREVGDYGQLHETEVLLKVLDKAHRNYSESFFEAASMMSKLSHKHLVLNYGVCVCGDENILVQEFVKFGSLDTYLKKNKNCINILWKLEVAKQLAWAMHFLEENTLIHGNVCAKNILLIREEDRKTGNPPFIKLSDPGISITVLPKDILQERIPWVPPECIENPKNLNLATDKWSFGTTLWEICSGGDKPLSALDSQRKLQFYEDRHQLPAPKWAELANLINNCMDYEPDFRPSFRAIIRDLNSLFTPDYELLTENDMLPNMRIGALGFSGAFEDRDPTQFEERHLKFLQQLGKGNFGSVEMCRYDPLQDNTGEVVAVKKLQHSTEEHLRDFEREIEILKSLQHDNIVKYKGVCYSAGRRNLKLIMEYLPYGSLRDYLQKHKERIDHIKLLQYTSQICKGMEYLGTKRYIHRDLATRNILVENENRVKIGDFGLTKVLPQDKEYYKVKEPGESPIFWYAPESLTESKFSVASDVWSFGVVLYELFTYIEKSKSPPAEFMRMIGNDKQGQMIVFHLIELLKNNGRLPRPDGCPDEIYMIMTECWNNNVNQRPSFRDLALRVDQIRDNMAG
Sequence of JAK1 (P23458 whole entry): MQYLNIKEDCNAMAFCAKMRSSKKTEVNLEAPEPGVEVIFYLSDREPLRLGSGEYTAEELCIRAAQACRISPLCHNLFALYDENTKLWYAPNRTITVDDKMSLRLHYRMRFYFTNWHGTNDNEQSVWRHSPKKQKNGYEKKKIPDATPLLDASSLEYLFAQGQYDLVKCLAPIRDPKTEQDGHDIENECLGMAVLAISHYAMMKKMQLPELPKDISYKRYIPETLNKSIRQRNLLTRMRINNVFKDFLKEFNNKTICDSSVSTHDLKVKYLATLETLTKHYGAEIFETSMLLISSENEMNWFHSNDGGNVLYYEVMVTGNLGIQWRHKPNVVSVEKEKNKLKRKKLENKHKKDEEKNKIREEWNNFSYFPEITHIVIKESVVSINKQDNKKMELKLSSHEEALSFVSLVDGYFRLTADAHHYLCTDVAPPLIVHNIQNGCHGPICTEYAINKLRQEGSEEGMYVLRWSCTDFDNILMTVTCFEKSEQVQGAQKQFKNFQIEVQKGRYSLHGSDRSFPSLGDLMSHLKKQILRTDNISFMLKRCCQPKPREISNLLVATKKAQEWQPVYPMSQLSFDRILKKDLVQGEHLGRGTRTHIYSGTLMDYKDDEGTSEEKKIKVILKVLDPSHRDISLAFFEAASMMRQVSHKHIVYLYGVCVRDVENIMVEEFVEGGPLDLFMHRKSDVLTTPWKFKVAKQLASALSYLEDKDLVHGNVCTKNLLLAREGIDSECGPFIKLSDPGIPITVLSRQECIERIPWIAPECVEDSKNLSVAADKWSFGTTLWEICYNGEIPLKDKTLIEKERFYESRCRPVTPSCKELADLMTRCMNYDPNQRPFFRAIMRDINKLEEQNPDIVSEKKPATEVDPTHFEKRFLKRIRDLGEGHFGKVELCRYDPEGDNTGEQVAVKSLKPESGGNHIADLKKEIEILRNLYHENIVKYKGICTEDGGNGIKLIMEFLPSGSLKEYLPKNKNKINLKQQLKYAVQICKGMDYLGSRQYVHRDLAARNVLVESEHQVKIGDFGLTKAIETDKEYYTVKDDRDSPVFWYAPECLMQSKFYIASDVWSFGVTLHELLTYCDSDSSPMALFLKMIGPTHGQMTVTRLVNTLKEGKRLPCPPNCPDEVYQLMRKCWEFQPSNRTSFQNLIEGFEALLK

With `CCc1cc(O)c(F)cc1-c1ccc2c(-c3nc4c([nH]3)CCN(C(=O)N3CCC(N5CCCCC5)CC3)C4)n[nH]c2c1` [Example 2(a), [1,4′-bipiperidin]-1′-yl(2-(6-(2-ethyl-5-fluoro-4-hydroxyphenyl)-1H-indazol-3-yl)-1,4,6,7-tetrahydro-5H-imidazo[4,5-c]pyridin-5-yl)methanone], the Kd on TYK2 was 0.069 nM; on JAK1, 0.6 nM; at JAK2 it was 0.034 nM; at JAK3 it was 0.046 nM. This compound gave an IC50 in data set [1] of 48.4 nM. Also, the solubility thermodynamic at 24 h in data set [2] (Run 1, read-out: pH 6.5 FaSSCoF Solubility, Run 1) is 30 µg/mL (≈ 52.5 µM); in data set [2] (Run 2, read-out: pH 6.5 FaSSCoF Solubility, Run 2), 30 µg/mL (≈ 52.5 µM). In the data set on Jurkat cells, the “% viability at 1 μg/mL” value was determined as 59%.
As to `CCc1cc(O)c(F)cc1-c1ccc2c(-c3nc4c([nH]3)CCN(S(=O)(=O)N(CCC#N)CCOC)C4)n[nH]c2c1` [Example 6(a), N-(2-cyanoethyl)-2-(6-(2-ethyl-5-fluoro-4-hydroxyphenyl)-1H-indazol-3-yl)-N-(2-methoxyethyl)-6,7-dihydro-1H-imidazo[4,5-c]pyridine-5(4H)-sulfonamide], the 50% inhibitory concentration (IC50) in data set [1] came to 9.5 nM. Also, the “% viability at 1 μg/mL” value in the data set with Jurkat cells is given as 79%.
In data set [1], `CCc1cc(O)c(F)cc1-c1ccc2c(-c3nc4c([nH]3)CCN(S(=O)(=O)N3CCC(OC)CC3)C4)n[nH]c2c1` [Example 6(i), 5-Ethyl-2-fluoro-4-(3-(5-((4-methoxypiperidin-1-yl)sulfonyl)-4,5,6,7-tetrahydro-1H-imidazo[4,5-c]pyridin-2-yl)-1H-indazol-6-yl)phenol] gave an IC50 of 14 nM. Moreover, the “% viability at 1 μg/mL” value in the data set with Jurkat cells came out at 86%.
For `CCc1cc(O)c(F)cc1-c1ccc2c(-c3nc4c([nH]3)CCN(S(=O)(=O)N3CCN(S(C)(=O)=O)CC3)C4)n[nH]c2c1` [Example 5] the same measures were 17.8 nM and 87%.
For `CCc1cc(O)c(F)cc1-c1ccc2c(-c3nc4c([nH]3)CCN(C(=O)N(C)c3ccccc3)C4)n[nH]c2c1` [Example 2(e), 2-(6-(2-ethyl-5-fluoro-4-hydroxyphenyl)-1H-indazol-3-yl)-N-methyl-N-phenyl-1,4,6,7-tetrahydro-5H-imidazo[4,5-c]pyridine-5-carboxamide] the same measures were 10.9 nM and 92%.
In the same order, the values of `CCc1cc(O)c(F)cc1-c1ccc2c(-c3nc4c([nH]3)CCN(C(=O)Nc3cn(C)c(=O)n(C)c3=O)C4)n[nH]c2c1` [Example 4(d), N-(1,3-dimethyl-2,4-dioxo-1,2,3,4-tetrahydropyrimidin-5-yl)-2-(6-(2-ethyl-5-fluoro-4-hydroxyphenyl)-1H-indazol-3-yl)-6,7-dihydro-1H-imidazo[4,5-c]pyridine-5(4H)-carboxamide] are 19.2 nM and 60%.
Regarding `CCc1cc(O)c(F)cc1-c1ccc2c(-c3nc4c([nH]3)CCN(S(=O)(=O)N3CCS(=O)(=O)CC3)C4)n[nH]c2c1` [Example 6(g), 4-((2-(6-(2-ethyl-5-fluoro-4-hydroxyphenyl)-1H-indazol-3-yl)-6,7-dihydro-1H-imidazo[4,5-c]pyridin-5(4H)-yl)sulfonyl)thiomorpholine 1,1-dioxide], half-maximal inhibition in data set [1] (IC50) was put at 7.2 nM. Moreover, the “% viability at 1 μg/mL” value with Jurkat cells turned out to be 88%.
For `CCc1cc(O)c(F)cc1-c1ccc2c(-c3nc4c([nH]3)CCN(S(=O)(=O)N3CCN(C)CC3)C4)n[nH]c2c1` [Example 6(f), 5-ethyl-2-fluoro-4-(3-(5-((4-methylpiperazin-1-yl)sulfonyl)-4,5,6,7-tetrahydro-1H-imidazo[4,5-c]pyridin-2-yl)-1H-indazol-6-yl)phenol] the same measures were 9 nM and 29%.

One may read the IC50 as the concentration needed to halve the response being measured.

The values are drawn from patent US10882859B2, “Kinase inhibitors” (Topivert Pharma Limited, priority 2015, dated 2021).
